Test results reported in US20190389830A1, “NRF2 ACTIVATOR” (BIOGEN MA INC., priority 2017, published 2019).

How the values were obtained:
Type in all cases: cell-based
human astrocytes [1] = assay: Glutathione assay (GSH-Glo) in human astrocytes; conditions: 20-hr exposure (FIG. 2)
Experimental: (§1) Human astrocytes from ScienCell (cat #1820) were grown in astrocyte medium per supplier's instructions. Cells cultured for no more than two passages were plated in 96-well plates at 40,000 cells per well for gene transcription experiments and 20,000 cell per well for glutathione and cytoprotection assays.
Intracellular glutathione was measured after a 20-hr exposure to test compound 3-Ent1 by a two-step process. First, cells were lysed and luciferin quantitatively generated from substrate, catalyzed by glutathione-S-transferase in the presence of analyte glutathione. Then luciferin was assayed using stabilized luciferase to produce a luminescent signal proportional to the concentration of glutathione (Promega GSH-Glo, cat #V6912).

Nrf2 target genes = assay: Gene expression (RT-PCR) in cultured human astrocytes; conditions: 20 hours, increasing concentrations
Experimental: as §1
Primary cultures of human spinal cord astrocytes were treated with compound 3-Ent1 for 20 hours. The cells were then rinsed in PBS, lysed, and processed for RNA using Ambion Taqman™ Cells-to-CT kit. The resulting cDNA was stored at −20° C. until analysis by real-time polymerase chain reaction (RT-PCR). The cDNA mixture from Cells-to-CT was diluted 5x before loading into PCR. This yields results similar to using 6 ng of purified cDNA. RT-PCR was performed on Life Technologies QuantStudio platform using OpenArray technique according to manufacturer's protocol using the following Taqman primers: […]
The comparative CT method was used to calculate fold changes using ThermoFisher Cloud software for PCR analysis. Samples were compared to vehicle control.

human astrocytes [2] = assay: Cytoprotection of astrocytes against sodium arsenite; conditions: compound 20 hrs before 25 μM sodium arsenite, further 22 hrs (FIG. 3)
Experimental: as §1
Astrocytes were treated for 20 hrs as above, then the medium was removed and replaced with serum- and supplement-free growth medium with and without 25 μM sodium arsenite. After 22 hrs., cells were washed with PBS, fixed with 4% paraformaldehyde/4% sucrose in PBS, stained with 4′,6-Diamidino-2-phenylindole dihydrochloride (DAPI) and counted by quantitative fluorescence microscopy.

SMILES: CC1CCC2(C)C=C(C#N)C(=O)C(C)(C)C2O1 (single isomer, unassigned; ent1) [Compound 3-Ent1]
- intracellular glutathione (human astrocytes [1]): increases
- transcription of GCLC (Nrf2 target genes; compared to vehicle control (FIG. 1A)): induces transcription
- transcription of HMOX1 (Nrf2 target genes; compared to vehicle control (FIG. 1B)): induces transcription
- transcription of OSGIN1 (Nrf2 target genes; compared to vehicle control (FIG. 1C)): induces transcription
- transcription of NQO1 (Nrf2 target genes; compared to vehicle control (FIG. 1D)): induces transcription
- protection from oxidative stress-induced cell death (human astrocytes [2]): protects cells
